Test results as given in article PMC8222254, “Self-assembly of an anion receptor with metal-dependent kinase inhibition and potent in vitro anti-cancer properties” (Nature Communications, 2021).
Several values for one entry are separate records, joined by “and”; a condition that tells them apart may be missing. Equal entries are not always repeated. Where two headings read alike, the source gives them in different places.

Key:
Experiment in all cases: Chemosensitivity, 96 h continuous exposure, MTT assay
Type in all cases: cell-based, human
[1] = tested on: DLD-1
From the text: (§1) All cell lines were purchased from and maintained as monolayers as described by the American Type Culture Collection with the exception of the p53^+/+ and p53^−/− isogenic clones of HCT116 human colorectal adenocarcinoma cells which were a kind gift from Professor Bert Vogelstein[54]. GBM1 cells were established from a primary GBM tumour by Heiko Wurdak and colleagues[32],[33]. Non-cancerous adult brain neural progenitor (NP1) cells were derived from a patient undergoing surgery to treat epilepsy[32],[33]. Cell culture and growth media for NP1 and GBM1 cells were as described[32],[33]. The response of cells following a continuous 96-h exposure to test compounds and platinates was determined using the MTT assay. Potency was recorded as the IC50 and the selectivity index (SI) was defined as the ratio of IC50 values for non-cancer to cancer cell lines with values >1 representing selectivity for cancer cells as opposed to non-cancer cells.
(§2) All cell lines used were maintained at low passage in antibiotic-free media. HT29, DLD-1, HCT116 p53^+/+ and HCT116 p53^−/− are all colorectal adenocarcinoma cell lines derived from different individuals and harbour different combinations of oncogenic lesions (except for the HCT116 isogenic cancer cell clones that are genetically identical except for p53 status). PSN-1, BxPC-3 and MiaPaCa2 are pancreatic carcinoma cell lines and A549 and H460 are lung carcinoma cell lines. HT29, DLD-1, PSN-1, BxPC-3, A549 and H460 cell lines were cultured in RPMI-1640 growth media (Sigma) containing 2 mM L-glutamine, 1 mM sodium pyruvate and 10% foetal bovine serum (FBS). HCT116 (p53^+/+ and p53^−/−) and MiaPaCa2 cell lines were cultured in Dulbecco’s Modified Eagle’s Medium (Sigma), 2 mM L-glutamine and 10% FBS. The ARPE-19 retinal epithelial non-cancer cell line was cultured in DMEM/F12 media (Gibco), 2 mM L-glutamine, 1 mM sodium pyruvate and 10% FBS. The MCF10A non-cancerous human breast epithelial cell line was cultured in Minimal Essential Media Eagle (Sigma), 2 mM L-glutamine, 1 mM sodium pyruvate, 10% FBS and 1x non-essential amino acids (NEAA). NP1 and GBM1 cells were cultured on plasticware coated with poly-L-ornithine (5 µg/ml) and laminin (2.4 µg/ml)[32],[33]. NP1 cells were grown in DMEM/F12 media (Gibco) supplemented with 5% FBS, 20 ng/ml hFGF, 20 ng/ml rhEGF, 0.5x B-27 supplement (Gibco), 0.5x N-2 supplement (Gibco) and 1x GLUTAMAX (Gibco). GBM1 cells were cultured in Neurobasal media (Gibco) supplemented with 40 ng/ml hFGF, 40 ng/ml rhEGF, 0.5x B-27 supplement (Gibco) and 0.5x N-2 supplement (Gibco).
(§3) [L2(Metal)3]^6+ and all the other self-assembling complexes were freshly formed by adding DMSO to individual components and mixing together by pipetting. These were then further diluted in cell culture media such that the final DMSO concentration that cells were exposed to was 0.2% (vehicle control). Cisplatin, oxaliplatin and carboplatin were dissolved in phosphate buffered saline. Cell lines were seeded into 96 well plates at 2 × 10^3 cells per well and incubated overnight at 37 °C. GBM1 cancer stem-like cells were seeded at 3 × 10^3 cells per well and NP1 neural progenitors were seeded at 1.5 × 10^3 cells per well. The following day, media was removed and replaced with fresh media containing test compounds at a range of concentrations. Cells were incubated with test compounds for a further 96 h after which the media was removed and replaced with fresh media (200 μl/well). MTT was added (20 μl at 5 mg/ml) and cells were incubated for a further 4 h. Media and MTT were removed and formazan crystals were dissolved in 150 μl of DMSO and the absorbance of the resulting solution determined at 540 nm. Dose response curves were constructed, and the concentration required to reduce cell growth by 50% (IC50) determined.

[2] = tested on: HCT116 p53+/+
From the text: as §1, §2, §3

[3] = tested on: MiaPaCa2
From the text: as §1, §2, §3

[4] = tested on: MCF10A non-cancer cells
From the text: as §1, §2, §3

[5] = tested on: BxPC3
From the text: as §1, §2, §3

[6] = tested on: A549
From the text: as §1, §2, §3

[7] = tested on: HCT116 p53-/-
From the text: as §1, §2, §3

O=P([O-])([O-])[O-].[Cu+2].[Cu+2].[Cu+2].c1ccc(-c2csc(NCCN(CCNc3nc(-c4ccccn4)cs3)CCNc3nc(-c4ccccn4)cs3)n2)nc1.c1ccc(-c2csc(NCCN(CCNc3nc(-c4ccccn4)cs3)CCNc3nc(-c4ccccn4)cs3)n2)nc1 [[L2Cu3(PO4)]3+]
IC50 ([1]; DLD-1, mean of replicates, read-out: Mean IC50): 637 nM
IC50 ([1]; DLD-1, read-out: Mean IC50 values): 637 nM
IC50 ([1]; DLD-1, single replicate, read-out: IC50 values for each replicate): 613 nM and 668 nM and 654 nM
Selectivity index (ARPE19) ([1]; IC50 ARPE-19 / IC50 DLD-1): 257.10
Selectivity index (MCF10A) ([1]; IC50 MCF10A / IC50 DLD-1): 77.52
Relative potency (+ anion to no anion), Ratio + anion:no anion ([1]; ratio of IC50, DLD-1): 4.83
Selectivity indices relative to ARPE-19, Ratio + anion:no anion ([1]; ratio of SI (ARPE-19), DLD-1): 0.645
Selectivity indices relative to MCF10A, Ratio + anion:no anion ([1]; ratio of SI (MCF 10A), DLD-1): 0.212
IC50 ([2]; HCT116 p53+/+, mean of replicates, read-out: Mean IC50): 3390 nM
IC50 ([2]; HCT116 p53+/+, read-out: Mean IC50 values): 3390 nM
IC50 ([2]; HCT116 p53+/+, single replicate, read-out: IC50 values for each replicate): 5270 nM and 3750 nM and 2150 nM and 2080 nM and 1850 nM
Selectivity index (ARPE19) ([2]; IC50 ARPE-19 / IC50 HCT116 p53+/+): 48.25
Selectivity index (MCF10A) ([2]; IC50 MCF10A / IC50 HCT116 p53+/+): 14.55
Relative potency (+ anion to no anion), Ratio + anion:no anion ([2]; ratio of IC50, HCT116 p53+/+): 6.84
Selectivity indices relative to ARPE-19, Ratio + anion:no anion ([2]; ratio of SI (ARPE-19), HCT116 p53+/+): 0.455
Selectivity indices relative to MCF10A, Ratio + anion:no anion ([2]; ratio of SI (MCF 10A), HCT116 p53+/+): 0.150
Selectivity index (ARPE19) ([3]; IC50 ARPE-19 / IC50 MiaPaCa2): 1.36
Selectivity index (MCF10A) ([3]; IC50 MCF10A / IC50 MiaPaCa2): 0.41
IC50 ([3]; MiaPaCa2, mean of replicates, read-out: Mean IC50): 121000 nM
IC50 ([3]; MiaPaCa2, read-out: Mean IC50 values): 121000 nM
IC50 ([3]; MiaPaCa2, single replicate, read-out: IC50 values for each replicate): 108000 nM and 145000 nM and 109000 nM
Relative potency (+ anion to no anion), Ratio + anion:no anion ([3]; ratio of IC50, MiaPaCa2): 10.22
Selectivity indices relative to ARPE-19, Ratio + anion:no anion ([3]; ratio of SI (ARPE-19), MiaPaCa2): 0.305
Selectivity indices relative to MCF10A, Ratio + anion:no anion ([3]; ratio of SI (MCF 10A), MiaPaCa2): 0.100
IC50 ([4]; MCF10A non-cancer, read-out: Mean IC50 values): 49400 nM
IC50 ([4]; MCF10A, mean of replicates, read-out: Mean IC50): 49400 nM
IC50 ([4]; MCF10A, single replicate, read-out: IC50 values for each replicate): 46700 nM and 51000 nM and 59300 nM and 40600 nM
Relative potency (+ anion to no anion), Ratio + anion:no anion ([4]; ratio of IC50, MCF10A): 1.02
IC50 ([5]; BXPC3, mean of replicates, read-out: Mean IC50): 1680 nM
IC50 ([5]; BXPC3, read-out: Mean IC50 values): 1680 nM
IC50 ([5]; BXPC3, single replicate, read-out: IC50 values for each replicate): 704 nM and 1940 nM and 2090 nM and 2240 nM and 1430 nM
Selectivity index (ARPE19) ([5]; IC50 ARPE-19 / IC50 BXPC3): 97.37
Selectivity index (MCF10A) ([5]; IC50 MCF10A / IC50 BXPC3): 29.36
Relative potency (+ anion to no anion), Ratio + anion:no anion ([5]; ratio of IC50, BXPC3): 5.74
Selectivity indices relative to ARPE-19, Ratio + anion:no anion ([5]; ratio of SI (ARPE-19), BXPC3): 0.542
Selectivity indices relative to MCF10A, Ratio + anion:no anion ([5]; ratio of SI (MCF 10A), BXPC3): 0.178
IC50 ([6]; A549, mean of replicates, read-out: Mean IC50): 1220 nM
IC50 ([6]; A549, read-out: Mean IC50 values): 1220 nM
Selectivity index (ARPE19) ([6]; IC50 ARPE-19 / IC50 A549): 134.46
Selectivity index (MCF10A) ([6]; IC50 MCF10A / IC50 A549): 40.54
Relative potency (+ anion to no anion), Ratio + anion:no anion ([6]; ratio of IC50, A549): 5.23
Selectivity indices relative to ARPE-19, Ratio + anion:no anion ([6]; ratio of SI (ARPE-19), A549): 0.595
Selectivity indices relative to MCF10A, Ratio + anion:no anion ([6]; ratio of SI (MCF 10A), A549): 0.196
IC50 ([7]; HCT116 p53-/-, mean of replicates, read-out: Mean IC50): 388 nM
IC50 ([7]; HCT116 p53-/-, read-out: Mean IC50 values): 388 nM
IC50 ([7]; HCT116 p53-/-, single replicate, read-out: IC50 values for each replicate): 686 nM and 542 nM and 264 nM and 205 nM and 242 nM
Selectivity index (ARPE19) ([7]; IC50 ARPE-19 / IC50 HCT116 p53-/-): 422.09
Selectivity index (MCF10A) ([7]; IC50 MCF10A / IC50 HCT116 p53-/-): 127.27
Relative potency (+ anion to no anion), Ratio + anion:no anion ([7]; ratio of IC50, HCT116 p53-/-): 2.83
Selectivity indices relative to ARPE-19, Ratio + anion:no anion ([7]; ratio of SI (ARPE-19), HCT116 p53-/-): 1.099
Selectivity indices relative to MCF10A, Ratio + anion:no anion ([7]; ratio of SI (MCF 10A), HCT116 p53-/-): 0.361
